The values below come from ChEMBL document CHEMBL1949605, “Discovery of aminoheterocycles as potent and brain penetrant prolylcarboxypeptidase inhibitors” (Bioorg Med Chem Lett, 2012).

Data set [1] has as its target T1, Lysosomal Pro-X carboxypeptidase (Mus musculus, UniProt Q7TMR0).
T1 sequence (Q7TMR0 whole entry): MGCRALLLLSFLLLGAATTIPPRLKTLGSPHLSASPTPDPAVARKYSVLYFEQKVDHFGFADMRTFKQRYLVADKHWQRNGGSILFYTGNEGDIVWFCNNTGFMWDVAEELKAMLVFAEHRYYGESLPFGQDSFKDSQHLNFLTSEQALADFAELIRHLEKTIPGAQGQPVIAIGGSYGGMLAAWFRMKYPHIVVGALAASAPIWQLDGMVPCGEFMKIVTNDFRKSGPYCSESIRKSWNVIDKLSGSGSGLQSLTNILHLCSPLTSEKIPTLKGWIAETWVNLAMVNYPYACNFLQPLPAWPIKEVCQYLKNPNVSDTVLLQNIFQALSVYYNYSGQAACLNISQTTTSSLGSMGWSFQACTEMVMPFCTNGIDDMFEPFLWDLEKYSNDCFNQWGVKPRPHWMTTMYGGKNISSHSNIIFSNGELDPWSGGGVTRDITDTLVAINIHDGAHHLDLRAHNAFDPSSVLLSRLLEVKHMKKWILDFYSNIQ
The data set can be described thus: Inhibition of mouse recombinant PrCP assessed as angiotensin 3 cleavage after 8 mins by LC/MS analysis.

Data set [2] concerns the target T1, Lysosomal Pro-X carboxypeptidase. Nature of the data set: Inhibition of mouse recombinant PrCP using Mca-Ala-Pro-Lys(Dnp)-OH as substrate after 30 mins by fluorescence analysis.
Data set [3] addresses T2, Lysosomal Pro-X carboxypeptidase (Homo sapiens, UniProt P42785).
T2 sequence (P42785 whole entry): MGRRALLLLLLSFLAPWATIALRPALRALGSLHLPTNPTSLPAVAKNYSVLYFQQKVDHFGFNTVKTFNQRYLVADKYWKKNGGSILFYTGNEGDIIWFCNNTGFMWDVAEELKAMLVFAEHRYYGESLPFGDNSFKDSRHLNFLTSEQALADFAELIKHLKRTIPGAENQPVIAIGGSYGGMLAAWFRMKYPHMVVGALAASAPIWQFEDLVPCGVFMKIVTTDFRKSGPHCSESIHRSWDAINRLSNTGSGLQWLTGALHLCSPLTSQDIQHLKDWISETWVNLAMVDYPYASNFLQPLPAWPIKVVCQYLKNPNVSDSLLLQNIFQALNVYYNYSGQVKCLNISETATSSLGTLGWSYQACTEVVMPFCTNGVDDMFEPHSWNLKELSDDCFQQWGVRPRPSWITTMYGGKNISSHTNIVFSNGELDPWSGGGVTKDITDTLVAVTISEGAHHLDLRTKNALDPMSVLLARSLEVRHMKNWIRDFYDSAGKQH
Nature of the data set: Inhibition of human recombinant PrCP using Mca-Ala-Pro-Lys(Dnp)-OH as substrate after 30 mins by fluorescence analysis.

The target in data set [4] is T3, Lysosomal Pro-X carboxypeptidase (Homo sapiens) (UniProt P42785).
T3 sequence (whole entry): T2 sequence (P42785 whole entry)
Nature of the data set: Inhibition of human recombinant PrCP using Mca-Ala-Pro-Lys(Dnp)-OH as substrate at 5 uM after 30 mins by fluorescence analysis.

Data set [5] can be described thus: Drug uptake in CF-1 mouse brain at 1 mg/kg, iv measured after 4 hrs post dosing. The following applies: read-out: Drug uptake. The data set is classed as ADME, organism-based. On the set-up: dose 1 mg/kg, route intravenous.
The nature of data set [6]: Plasma concentration in CF-1 mouse at 1 mg/kg, iv measured after 4 hrs post dosing. Also on record: dose 1 mg/kg, route intravenous. The format is ADME, organism-based.
A short description of data set [7]: Ratio of drug uptake in brain to plasma of CF-1 mouse at 1 mg/kg, iv measured 4 hrs post-dosing. The data set is classed as ADME, organism-based. Also on record: dose 1 mg/kg, route intravenous. The note with it: read-out: BPR.

Bounds are passed on as bounds.

Usually IC50 stands for the concentration needed to halve the response being measured. With `C[C@@H](c1ccc(-c2ccccc2)cc1)[C@H](NC(=O)C(C)(C)N)C(=O)N1CCC[C@H]1c1nc2cc(Cl)c(Cl)cc2[nH]1`, in data set [1], the IC50 came to 25 nM.

`Clc1cc2nc([C@@H]3CCCN3c3cc(N4CCC(Cn5cccn5)CC4)ncn3)[nH]c2cc1Cl`: the IC50 in data set [2] is 206 nM; in data set [1], more than 20000 nM.

As for `Clc1cc2nc([C@@H]3CCCN3c3cc(NCC4CCCCC4)ncn3)[nH]c2cc1Cl`, the IC50 in data set [3] is more than 10000 nM.

A word on the inhibition: it is the drop in the measured response relative to a control, in per cent. On to `FC(F)(F)c1ccccc1-c1ccnc(N2CCC[C@H]2c2nc3cc(Cl)c(Cl)cc3[nH]2)c1`, for which, in data set [4], the inhibition came out at 46%.

Consider `C[C@H](Nc1cc(N[C@H]2CC[C@H](NS(C)(=O)=O)CC2)ncn1)c1ccc(Cl)cc1`, for which, in data set [2], the IC50 is 105 nM.

Consider `COC(=O)N[C@H]1CC[C@H](Nc2cc(N[C@@H](C)c3ccc(Cl)cc3)ncn2)CC1`, for which the IC50 in data set [2] came out at 26 nM; in data set [1], 159 nM.

On to `Clc1cc2nc([C@@H]3CCCN3c3cc(N4CCC(c5ccccn5)C4)ncn3)[nH]c2cc1Cl` (mixture of isomers), for which the IC50 in data set [1] was more than 20000 nM.

Turning to `COc1ccc(C2CN(c3cc(N4CCC[C@H]4c4nc5cc(Cl)c(Cl)cc5[nH]4)ncn3)CCO2)cc1` (stereo not given in full), the IC50 in data set [2] was 46 nM; in data set [1], 9000 nM.

For the compound `CC(C)(O)C1CCCN(c2cc(N3CCC[C@H]3c3nc4cc(Cl)c(Cl)cc4[nH]3)ncn2)C1` (mixture of isomers), the IC50 in data set [1] was more than 20000 nM.

For the compound `Clc1cc2nc([C@@H]3CCCN3c3cc(N4CCN(Cc5ccccc5)CC4)ncn3)[nH]c2cc1Cl`, the results for the half-maximal inhibitory concentration (IC50) in data set [2] and in data set [1] were 413 nM and more than 20000 nM, respectively.

In the case of `Clc1cc2nc([C@@H]3CCCN3c3cc(N4CCO[C@H](c5ccccc5)C4)ncn3)[nH]c2cc1Cl`, the IC50 in data set [1] is more than 20000 nM.

In the case of `Clc1cc2nc([C@@H]3CCCN3c3cc(N4CCCC(N5CCc6c(cccc6-c6cccnc6)C5)C4)ncn3)[nH]c2cc1Cl` (stereo in doubt; 28b), the IC50 in data set [2] turned out to be 18 nM; in data set [1] it was 355 nM.

`C[C@H](Nc1cc(N[C@H]2CC[C@H](c3ccccc3)CC2)ncn1)c1ccc(Cl)cc1`: the IC50 in data set [2] worked out at 75 nM.

Turning to `Clc1cc2nc([C@@H]3CCCN3c3cc(N4CCO[C@@H](c5ccccc5)C4)ncn3)[nH]c2cc1Cl`, the IC50 in data set [1] was more than 20000 nM. In addition, the figures for the concentration at 4 h in data set [5] and in data set [6] were 242 nM and 304 nM, respectively. Besides, the Kp at 4 h in data set [7] is 0.79.

As to `C[C@H](Nc1cc(N2CCCC(C(C)(C)O)C2)ncn1)c1ccc(Cl)cc1` (stereo not given in full), the concentration at 4 h in data set [5] turned out to be 400 nM; in data set [6], 291 nM. In addition, the Kp at 4 h in data set [7] came out at 1.4.

Regarding `C[C@@H](c1ccc(Cl)cc1)N(C)c1cc(N2CCCC(C(C)(C)O)C2)ncn1` (mixture of isomers), the IC50 in data set [2] was determined as 797 nM; in data set [1], 5000 nM.

As to `OC1(c2ccccc2)CCN(c2cc(N3CCC[C@H]3c3nc4cc(Cl)c(Cl)cc4[nH]3)ncn2)C1` (mixture of isomers), the IC50 in data set [1] was more than 20000 nM.

Regarding `Clc1cc2nc([C@@H]3CCCN3c3cc(N4CCCC(N5CCc6c(cccc6-c6cccnc6)C5)C4)ncn3)[nH]c2cc1Cl` (stereo in doubt; 28a), the IC50 in data set [2] turned out to be 10 nM; in data set [1], 345 nM. For the same compound, the concentration at 4 h in data set [5] turned out to be 108 nM; in data set [6], 367 nM. In addition, the Kp at 4 h in data set [7] was 0.29.

Take `C[C@@H](c1ccc(Cl)cc1)N(C)c1cc(N2CCCC(C(C)(C)O)C2)ncn1` (stereo in doubt; 36a): the IC50 was 146 nM in data set [2] and 2210 nM in data set [1].
